Reference: patent US20260324651A1 (priority 2022, published 2026)

Assays:
B. cinerea = experiment: Inhibitory effect of pure lipopeptides and their combinations on fungal growth
Method: (§1) To further explore the potential synergistic effect between bioactive metabolites assays with single families of bioactive compounds and their combinations were performed.
(§2) Increasing concentrations of pure stocks of surfactin (Sigma S3523, FIG. 4A), fengycin (Sigma SMB00292, FIG. 4B) or iturin (Sigma 11774, FIG. 4C) were added to 48-well microtiter plates containing PDB medium and a fixed fungal spore concentration. Inhibitory effect over two different phytopathogenic species was assayed, F. culmorum (FIG. 4, left) and B. cinerea (FIG. 4, right). Plates were incubated at 25° C. without shaking for 60 hours (in dark conditions) and fungal growth was measured by spectrophotometry at 600 nm.
(§3) Fungal growth inhibition of increasing concentrations of single compounds was compared with compound combinations, where a fixed concentration of one of them was assayed in combination with increasing concentrations of the second metabolite.

F. culmorum = experiment: as above
Method: as §1, §2, §3

[1] = single lipopeptide, 25° C., 60 hours
[2] = in the presence of surfactin, vs fengycin alone
[3] = with surfactin at 100-200 μg/ml

Substance | effective concentration for strong growth inhibition (B. cinerea; [1]) | inhibition of fungal growth (B. cinerea; [1]) | effective concentration for strong growth inhibition (F. culmorum; [1]) | inhibition of fungal growth (F. culmorum; [1]) | inhibitory effect on growth at high concentrations (B. cinerea; 200-400 μg/ml surfactin alone) | inhibitory effect on growth at high concentrations (F. culmorum; 200-400 μg/ml surfactin alone) | increase of bioactivity of fengycin in the presence of surfactin (B. cinerea; [2]) | effective concentration of fengycin required to inhibit growth (B. cinerea; [3]) | increase of bioactivity of fengycin in the presence of surfactin (F. culmorum; [2]) | effective concentration of fengycin required to inhibit growth (F. culmorum; [3])
iturin | 9 µg/mL | potent inhibition of fungal growth | 9 µg/mL | potent inhibition of fungal growth |  |  |  |  |  | 
surfactin |  | only compromised pathogen growth very weakly |  | only compromised pathogen growth very weakly | very modest and barely decreased the growth | very modest and barely decreased the growth |  |  |  | 
fengycin |  | potent inhibition of fungal growth |  | potent inhibition of fungal growth |  |  | up to 6 fold | 12.5 µg/mL | up to 6 fold | 12.5 µg/mL
